According to US20250134855A1, “CO[…] AND METHODS OF USING SAME” (LYKOS THERAPEUTICS, INC., priority 2022, published 2025):
pIC50: −log10 of the molar value.

Assays:
[1] = tested on: participants with severe PTSD; assay: MAPP1 Phase 3: CAPS-5 total severity score; type: in vivo, human; conditions: for CFB in CAPS-5 Total Severity Score, LS mean for treatment difference (95% CI) / CFB in CAPS-5 Total Severity Score, LS mean / CAPS-5 Total Severity Score, Mean / CAPS-5 Total Severity Score, Median / CFB in CAPS-5 Total Severity Score, Mean / CFB in CAPS-5 Total Severity Score, Median / Loss of Diagnosis, % / Non-Responder (<10-point reduction in CAPS-5 Total Severity Score), % / Remission, % / Responder (≥10-point reduction in CAPS-5 Total Severity Score), %: MAPP1, mITT; for CFB in CAPS-5 Total Severity Score, LS mean for treatment difference (95% CI): vs placebo with therapy
Description: FIG. 36 and FIG. 37 show the time course of improvement in Clinician Administered PTSD Scale for DSM-5 (CAPS-5) total severity score versus placebo. Each show a treatment difference between MDMA and placebo after 3 medication sessions with psychological intervention. […] Between the second and third treatment sessions, the difference between the groups appeared to continue to increase in both studies. The primary efficacy measure was change from baseline in the CAPS-5 total severity score at 18 weeks, which was evaluated 2 months after the final dosing session. The CAPS-5 is a 30-item, clinician-rated scale used to assess severity of PTSD symptoms and diagnostic status according to DSM-5 criteria, as described herein. Scores on the CAPS 5 range from 0 to 80, with higher scores indicating more severe PTSD symptoms. In both studies, a secondary efficacy measure was change from baseline in Sheehan Disability Scale (SDS) mean item scores at 18 weeks. The modified SDS is a 3-item, clinician-rated scale measuring the degree of functional impairment in work, family, and social life. Scores on the SDS mean items range from 0 to 10, with higher scores indicating more functional impairment. In these studies, the efficacy assessments were administered by blinded independent raters 18 to 30 days after medication sessions 1 and 2.
A flexible dose of MDMA hydrochloride salt (referred to as MDMA throughout) or placebo, followed by a supplemental half-dose unless contraindicated, was administered during the Treatment Period with manualized psychotherapy in three blinded monthly Experimental Sessions. This ˜12-week Treatment Period was preceded by three Preparatory Sessions. During the Treatment Period, each Experimental Session was followed by three Integrative Sessions of non-drug psychotherapy. Experimental Sessions were followed by an overnight stay. The Primary Outcome measure, the change in Clinician Administered PTSD Scale (CAPS-5), was assessed by a blinded centralized Independent Rater (IR) pool multiple times throughout the study. Three blinded manualized Experimental Sessions of psychotherapy assisted by flexible doses of MDMA·HCl or placebo were administered (see Table 28 below). Initial doses per Experimental Session include 80 mg or 120 mg MDMA compounded with mannitol and magnesium stearate or indistinguishable weight placebos comprised entirely of mannitol and magnesium stearate, followed 1.5 to 2 hours later by a supplemental half-dose (40 mg or 60 mg MDMA·HCl or placebo). Total amounts of MDMA·HCl to be administered per Experimental Session range from 80 mg to 180 mg. All drug is encapsulated with HPMC capsules.
In the first Experimental Session, the initial dose was 80 mg MDMA·HCl or placebo. In the second and third Experimental Sessions, the initial dose may be increased to 120 mg MDMA·HCl or placebo unless contraindicated. The choice of whether to keep the dose the same or change it from the first Experimental Session was made by the therapy team the in consultation with the site physician based on observed response, tolerability to the previously administered dose, and discussion with the participant. In each Experimental Session, 1.5 to 2 hours after the initial dose is given, the participant was administered a supplemental half-dose unless contraindicated. If an AE requiring medical attention occurs between the initial and supplemental dose this was evaluated as a potential contraindication by the site physician. If a participant prefers not to take the supplemental dose, the reason was documented. Participants will not know if they have been assigned MDMA or placebo but can indicate if they want the dose to change or remain the same.
The MDMA assisted therapy (MDMA-AT) approach is detailed in the “Manual for MDMA Assisted Therapy in the Treatment of PTSD,” published by MAPS (MDMA Treatment Manual, available at maps.org/treatment-manual). […]

dogs [2] = assay: 28-day repeat-dose toxicity, weekly oral, dogs; conditions: any dose
dogs [3] = assay: Daily 28-day repeated dose toxicology study, dogs; type: in vivo, dog; conditions: 0, 3, 9, or 15 mg/kg/day, daily 28 days
Experimental: Based on negative in vivo and in vitro genotoxicity studies, the carcinogenic risk of MDMA·HCl is low. No tumors were reported after daily 28-day repeated dose toxicology studies of MDMA in rats (0, 10, 50, or 100 mg/kg/day) or dogs (0, 3, 9, or 15 mg/kg/day).

MDR1 = MDR1 (Homo sapiens, UniProt P08183); assay: Transporter substrate assessment, MDR1
MDR1, sequence (P08183 whole entry): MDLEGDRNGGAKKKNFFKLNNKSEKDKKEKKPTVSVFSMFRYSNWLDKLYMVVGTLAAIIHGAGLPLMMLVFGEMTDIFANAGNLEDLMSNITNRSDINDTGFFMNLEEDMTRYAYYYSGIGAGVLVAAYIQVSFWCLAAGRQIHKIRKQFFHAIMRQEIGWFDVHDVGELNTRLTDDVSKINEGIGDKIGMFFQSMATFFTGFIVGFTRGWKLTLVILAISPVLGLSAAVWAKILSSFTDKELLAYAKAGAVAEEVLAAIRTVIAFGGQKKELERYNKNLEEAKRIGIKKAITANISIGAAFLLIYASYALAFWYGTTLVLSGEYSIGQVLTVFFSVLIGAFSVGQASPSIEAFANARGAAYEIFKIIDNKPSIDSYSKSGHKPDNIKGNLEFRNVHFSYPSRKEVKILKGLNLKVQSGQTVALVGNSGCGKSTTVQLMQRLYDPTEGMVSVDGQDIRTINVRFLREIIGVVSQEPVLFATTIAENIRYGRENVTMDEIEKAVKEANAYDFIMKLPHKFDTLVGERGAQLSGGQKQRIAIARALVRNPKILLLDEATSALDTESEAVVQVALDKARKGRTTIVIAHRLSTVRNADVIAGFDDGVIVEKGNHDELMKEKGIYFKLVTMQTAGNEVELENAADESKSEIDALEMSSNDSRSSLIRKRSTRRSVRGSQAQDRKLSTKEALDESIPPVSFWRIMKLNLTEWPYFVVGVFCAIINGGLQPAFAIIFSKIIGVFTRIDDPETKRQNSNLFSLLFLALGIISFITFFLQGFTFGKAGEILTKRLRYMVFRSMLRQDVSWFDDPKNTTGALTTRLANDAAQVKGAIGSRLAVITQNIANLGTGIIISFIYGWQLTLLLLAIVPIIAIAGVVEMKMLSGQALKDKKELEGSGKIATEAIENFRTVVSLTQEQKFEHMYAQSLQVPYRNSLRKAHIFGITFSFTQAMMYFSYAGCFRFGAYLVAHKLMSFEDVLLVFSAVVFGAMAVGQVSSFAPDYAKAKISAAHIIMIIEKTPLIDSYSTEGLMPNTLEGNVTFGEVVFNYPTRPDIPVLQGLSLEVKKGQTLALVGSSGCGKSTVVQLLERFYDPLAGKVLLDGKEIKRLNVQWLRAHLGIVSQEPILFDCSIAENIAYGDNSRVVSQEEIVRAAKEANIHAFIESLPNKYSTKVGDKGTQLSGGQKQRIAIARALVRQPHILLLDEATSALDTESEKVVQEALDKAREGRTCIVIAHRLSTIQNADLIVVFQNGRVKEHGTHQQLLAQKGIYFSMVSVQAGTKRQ

[4] = biological target: human ether-à-go-go-related gene (hERG) potassium current (Homo sapiens, UniProt Q12809); assay: hERG potassium current inhibition
human ether-à-go-go-related gene (hERG) potassium current, sequence (Q12809 whole entry): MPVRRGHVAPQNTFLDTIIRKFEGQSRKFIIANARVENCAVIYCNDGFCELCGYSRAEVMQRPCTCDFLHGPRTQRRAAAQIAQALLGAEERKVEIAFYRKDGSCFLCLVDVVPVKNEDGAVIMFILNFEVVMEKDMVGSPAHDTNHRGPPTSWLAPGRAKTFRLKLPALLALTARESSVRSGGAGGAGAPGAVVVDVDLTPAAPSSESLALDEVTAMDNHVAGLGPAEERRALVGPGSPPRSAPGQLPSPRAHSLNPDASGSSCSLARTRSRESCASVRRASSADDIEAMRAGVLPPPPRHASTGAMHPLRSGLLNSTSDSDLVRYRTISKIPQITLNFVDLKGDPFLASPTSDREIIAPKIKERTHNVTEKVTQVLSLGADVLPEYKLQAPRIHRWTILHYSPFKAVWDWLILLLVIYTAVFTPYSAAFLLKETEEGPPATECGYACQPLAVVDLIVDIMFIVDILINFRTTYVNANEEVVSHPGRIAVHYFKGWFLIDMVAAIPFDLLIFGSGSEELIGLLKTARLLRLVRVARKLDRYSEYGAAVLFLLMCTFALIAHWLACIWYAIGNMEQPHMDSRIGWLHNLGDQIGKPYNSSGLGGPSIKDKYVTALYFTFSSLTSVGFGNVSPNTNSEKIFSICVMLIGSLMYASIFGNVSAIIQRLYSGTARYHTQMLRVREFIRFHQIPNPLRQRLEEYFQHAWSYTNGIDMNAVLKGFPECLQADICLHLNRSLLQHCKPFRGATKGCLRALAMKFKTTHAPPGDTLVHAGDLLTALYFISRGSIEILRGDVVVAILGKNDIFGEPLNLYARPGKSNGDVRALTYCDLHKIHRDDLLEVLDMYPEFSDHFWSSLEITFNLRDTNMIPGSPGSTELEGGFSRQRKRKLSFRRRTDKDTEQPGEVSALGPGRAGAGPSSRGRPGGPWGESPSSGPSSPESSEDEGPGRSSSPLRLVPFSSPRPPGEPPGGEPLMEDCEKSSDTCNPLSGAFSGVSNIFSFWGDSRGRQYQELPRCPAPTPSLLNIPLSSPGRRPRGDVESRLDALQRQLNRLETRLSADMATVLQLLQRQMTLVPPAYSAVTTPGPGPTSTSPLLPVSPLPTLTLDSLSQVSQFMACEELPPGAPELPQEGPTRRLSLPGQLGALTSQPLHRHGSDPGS

[5] = biological target: bile salt export pump (BSEP) (Homo sapiens, UniProt O95342); assay: Transporter inhibition, BSEP
bile salt export pump (BSEP), sequence (O95342 whole entry): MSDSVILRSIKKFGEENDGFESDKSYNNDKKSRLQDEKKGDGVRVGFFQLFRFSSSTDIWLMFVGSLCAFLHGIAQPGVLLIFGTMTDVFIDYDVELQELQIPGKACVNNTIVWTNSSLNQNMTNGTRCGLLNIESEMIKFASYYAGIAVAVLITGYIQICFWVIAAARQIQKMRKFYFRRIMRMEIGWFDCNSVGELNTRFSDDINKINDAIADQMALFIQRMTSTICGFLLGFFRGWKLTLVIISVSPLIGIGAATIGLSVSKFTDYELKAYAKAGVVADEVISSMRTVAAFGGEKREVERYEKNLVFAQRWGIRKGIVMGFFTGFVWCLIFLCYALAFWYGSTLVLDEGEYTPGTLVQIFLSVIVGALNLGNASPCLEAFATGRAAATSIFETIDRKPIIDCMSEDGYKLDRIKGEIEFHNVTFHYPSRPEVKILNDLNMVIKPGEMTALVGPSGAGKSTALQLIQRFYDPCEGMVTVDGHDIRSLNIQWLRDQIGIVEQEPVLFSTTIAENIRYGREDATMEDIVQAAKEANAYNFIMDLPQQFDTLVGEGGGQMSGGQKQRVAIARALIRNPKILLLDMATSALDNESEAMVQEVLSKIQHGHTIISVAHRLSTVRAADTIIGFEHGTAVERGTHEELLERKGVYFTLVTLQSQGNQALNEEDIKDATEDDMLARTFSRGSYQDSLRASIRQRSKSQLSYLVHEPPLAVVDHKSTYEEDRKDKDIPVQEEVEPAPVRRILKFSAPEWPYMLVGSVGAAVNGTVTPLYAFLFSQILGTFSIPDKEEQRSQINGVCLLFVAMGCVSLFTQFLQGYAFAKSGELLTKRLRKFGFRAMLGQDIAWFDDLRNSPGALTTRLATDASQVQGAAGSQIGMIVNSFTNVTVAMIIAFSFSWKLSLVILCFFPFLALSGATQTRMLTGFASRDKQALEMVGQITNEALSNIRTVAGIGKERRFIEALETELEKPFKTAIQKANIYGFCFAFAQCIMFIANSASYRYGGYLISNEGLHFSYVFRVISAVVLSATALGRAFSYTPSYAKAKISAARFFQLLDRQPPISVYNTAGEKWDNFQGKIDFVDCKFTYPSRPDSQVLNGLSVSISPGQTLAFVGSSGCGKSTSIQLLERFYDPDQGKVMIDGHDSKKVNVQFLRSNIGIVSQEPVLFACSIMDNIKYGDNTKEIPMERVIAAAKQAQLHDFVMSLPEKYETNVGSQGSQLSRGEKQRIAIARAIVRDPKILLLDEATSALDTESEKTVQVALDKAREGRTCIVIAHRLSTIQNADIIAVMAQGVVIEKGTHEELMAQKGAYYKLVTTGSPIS

MATE1 = MATE1 (Homo sapiens, UniProt Q96FL8); assay: Transporter inhibition, MATE1; conditions: at supratherapeutic concentrations
MATE1, sequence (Q96FL8 whole entry): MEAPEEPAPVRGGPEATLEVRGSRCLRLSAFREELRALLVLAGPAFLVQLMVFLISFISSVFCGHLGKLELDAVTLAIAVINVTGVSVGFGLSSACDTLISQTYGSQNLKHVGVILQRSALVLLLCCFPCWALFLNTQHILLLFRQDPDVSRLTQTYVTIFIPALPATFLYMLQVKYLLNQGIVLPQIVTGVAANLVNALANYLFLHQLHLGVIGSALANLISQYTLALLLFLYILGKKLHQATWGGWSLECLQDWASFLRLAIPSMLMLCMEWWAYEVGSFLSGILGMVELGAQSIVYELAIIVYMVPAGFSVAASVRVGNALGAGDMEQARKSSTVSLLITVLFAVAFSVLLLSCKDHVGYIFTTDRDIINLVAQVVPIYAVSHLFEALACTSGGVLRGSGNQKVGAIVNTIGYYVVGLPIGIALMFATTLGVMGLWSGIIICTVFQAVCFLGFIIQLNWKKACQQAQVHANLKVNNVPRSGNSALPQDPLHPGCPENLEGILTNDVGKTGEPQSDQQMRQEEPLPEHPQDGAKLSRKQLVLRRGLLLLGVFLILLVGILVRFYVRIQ

[6] = tested on: CYP2B6, CYP2D6, CYP2C19, CYP1A2, CYP3A4, CYP2C9, CYP2C8; assay: CYP enzymes metabolizing MDMA; conditions: less contribution by CYP2C19, CYP1A2, CYP3A4, CYP2C9, and CYP2C8
[7] = biological target: organic anion transporter (OAT1) (Homo sapiens, UniProt Q4U2R8); assay: Transporter inhibition, OAT1
organic anion transporter (OAT1), sequence (Q4U2R8 whole entry): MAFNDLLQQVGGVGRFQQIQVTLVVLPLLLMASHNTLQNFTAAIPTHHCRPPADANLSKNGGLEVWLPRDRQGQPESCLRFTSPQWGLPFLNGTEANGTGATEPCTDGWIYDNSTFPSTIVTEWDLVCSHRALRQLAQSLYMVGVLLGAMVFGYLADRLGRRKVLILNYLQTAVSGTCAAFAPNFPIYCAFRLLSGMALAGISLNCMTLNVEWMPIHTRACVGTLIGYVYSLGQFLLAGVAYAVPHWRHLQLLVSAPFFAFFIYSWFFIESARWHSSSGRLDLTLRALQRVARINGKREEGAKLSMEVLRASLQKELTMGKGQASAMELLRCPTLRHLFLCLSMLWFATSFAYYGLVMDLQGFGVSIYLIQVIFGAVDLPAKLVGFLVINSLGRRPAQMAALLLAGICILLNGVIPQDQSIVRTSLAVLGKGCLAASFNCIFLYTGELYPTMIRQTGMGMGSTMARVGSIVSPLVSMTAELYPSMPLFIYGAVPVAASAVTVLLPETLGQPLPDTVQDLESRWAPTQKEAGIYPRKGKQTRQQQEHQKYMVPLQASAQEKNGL

[8] = de jure estimand, Baseline CAPS-5 T1 (Visit 3)
[9] = de jure estimand, CAPS-5 T2 (Visit 8)
[10] = de jure estimand, CAPS-5 T3 (Visit 13)
[11] = de jure estimand, CAPS-5 T4 (Visit 19)
[12] = de jure estimand, CFB to T2 (Visit 8)
[13] = de jure estimand, CFB to T3 (Visit 13)
[14] = de jure estimand, CFB to T4 (Visit 19)
[15] = T4 (primary) endpoint (Visit 19)

Which results are given for `CNC(C)Cc1ccc2c(c1)OCO2` (centres unmarked) [MDMA, 3,4-methylenedioxymethamphetamine]?
onset of treatment efficacy (CAPS-5 versus placebo) ([1]; FIG. 36 and FIG. 37, both studies): after the second session; CFB in CAPS-5 Total Severity Score, LS mean for treatment difference (95% CI) ([1]; MMRM, T2 (Visit 8)): −3.69 (−7.93, 0.54); CFB in CAPS-5 Total Severity Score, LS mean for treatment difference (95% CI) ([1]; MMRM, T3 (Visit 13)): −8.41 (−13.53, −3.29); CFB in CAPS-5 Total Severity Score, LS mean for treatment difference (95% CI) ([1]; MMRM, T4 (Visit 19)): −11.86 (−17.41, −6.32); CFB in CAPS-5 Total Severity Score, LS mean ([1]; de jure estimand, MMRM, CFB to T2 (Visit 8)): −10.40; CFB in CAPS-5 Total Severity Score, LS mean ([1]; de jure estimand, MMRM, CFB to T3 (Visit 13)): −17.83; CFB in CAPS-5 Total Severity Score, LS mean ([1]; de jure estimand, MMRM, CFB to T4 (Visit 19)): −24.50; CAPS-5 Total Severity Score, Mean [1, 8]: 44.0; CAPS-5 Total Severity Score, Median [1, 8]: 43.5; CAPS-5 Total Severity Score, Mean [1, 9]: 33.7; CAPS-5 Total Severity Score, Median [1, 9]: 34.5; CAPS-5 Total Severity Score, Mean [1, 10]: 26.2; CAPS-5 Total Severity Score, Median [1, 10]: 28.0; CAPS-5 Total Severity Score, Mean [1, 11]: 19.5; CAPS-5 Total Severity Score, Median [1, 11]: 18.5; CFB in CAPS-5 Total Severity Score, Mean [1, 12]: −10.3; CFB in CAPS-5 Total Severity Score, Median [1, 12]: −9.0; CFB in CAPS-5 Total Severity Score, Mean [1, 13]: −17.7; CFB in CAPS-5 Total Severity Score, Median [1, 13]: −17.5; CFB in CAPS-5 Total Severity Score, Mean [1, 14]: −24.4; CFB in CAPS-5 Total Severity Score, Median [1, 14]: −25.0; Loss of Diagnosis, % ([1]; T2 endpoint (Visit 8)): (23.9) %; Non-Responder (<10-point reduction in CAPS-5 Total Severity Score), % ([1]; T2 endpoint (Visit 8)): (54.3) %; Remission, % ([1]; T2 endpoint (Visit 8)): (8.7) %; Responder (≥10-point reduction in CAPS-5 Total Severity Score), % ([1]; T2 endpoint (Visit 8)): (45.7) %; Loss of Diagnosis, % ([1]; T3 endpoint (Visit 13)): (57.1) %; Non-Responder (<10-point reduction in CAPS-5 Total Severity Score), % ([1]; T3 endpoint (Visit 13)): (26.2) %; Remission, % ([1]; T3 endpoint (Visit 13)): (11.9) %; Responder (≥10-point reduction in CAPS-5 Total Severity Score), % ([1]; T3 endpoint (Visit 13)): (73.8) %; Loss of Diagnosis, % [1, 15]: (66.7) %; Non-Responder (<10-point reduction in CAPS-5 Total Severity Score), % [1, 15]: (11.9) %; Remission, % [1, 15]: (33.3) %; Responder (≥10-point reduction in CAPS-5 Total Severity Score), % [1, 15]: (88.1) %; change from Baseline to Visit 19 in CAPS-5 total severity scores ([1]; MAPP1, MMRM, de jure estimand, mITT): −24.50; no longer met PTSD diagnostic criteria ([1]; MAPP1, Visit 19): 66.7%; remission (CAPS-5 ≤11 and no longer meeting PTSD diagnostic criteria) ([1]; MAPP1, Visit 19): 33.3%; responders (≥10-point reduction in CAPS-5 total severity score) ([1]; MAPP1, Visit 19): 88.1%; neurohistopathology of the brain (dogs [2]): No morphologic changes; tumors (dogs [3]): No tumors; substrate of MDR1 (MDR1): not a substrate; pIC50 [4]: 3.69; Hill coefficient, hERG ([4]; human): 1.1; margin of hERG IC50 over clinical plasma concentration ([4]; supratherapeutic single dose of 180 mg MDMA HCl): 111 x; inhibition of BSEP [5]: not an inhibitor; inhibition of MATE1 (MATE1): inhibits; metabolizing CYP enzymes [6]: metabolized primarily by CYP2B6 and CYP2D6; inhibition of OAT1 [7]: not an inhibitor
